Measurements taken from patent US20140242590A1, “FLT3 MUTATIONS ASSOCIATED WITH DRUG RESISTANCE IN AML PATIENTS HAVING ACTIVATING MUTATIONS IN FLT3” (THE REGENTS OF THE UNIVERSITY OF CALIFORNIA, priority 2011, published 2014).

Tests used:
[1] = system: Ba/F3 cells expressing FLT3-ITD mutant isoforms; assay: Cell-viability assay of Ba/F3 populations stably expressing FLT3-ITD mutant isoforms; type: cell-based; settings: 48 hours
Method: Stable Ba/F3 lines were generated by using retroviral spinfection with the appropriate mutated plasmid as outlined above, with the exception of the exclusion of polybrene. At 48 h post-infection, puromycin was added to infected cells at a concentration of 4 μg/mL. Cells were selected in the presence of puromycin for 7-10 days and subsequently IL-3 was washed twice from the cells with media and cells were selected in RPMI medium 1640+10% FCS in the absence of IL-3. Exponentially growing BaiF3 cells (5×10^4) were plated in each well of a 24-well dish with 1 ml of RPMI 1640+10% FCS containing the appropriate concentration of drug as indicated in triplicate. Cells were allowed to expand for 2 days and were counted by using a Vi-cell XR automated cell viability analyzer (Beckman Coulter). The mean number of viable cells at varying concentrations of drug was normalized to the median number of viable cells in the no-drug sample for each mutant. Error bars represent the standard deviation. Numerical IC50 values were generated using non-linear best-fit regression analysis using Prism 5 software (GraphPad).

FLT3-ITD mutant isoforms = assay: Immunoblotting with anti-phospho-FLT3 / anti-FLT3 on Ba/F3 lysates (cell-based biochemical assay); settings: five AC220-resistant FLT3-ITD substitutions; 90 minutes exposure
Method: Exponentially growing Ba/F3 cells stably expressing each mutant along with a WT FLT3-ITD control were plated in RPMI medium 1640+10% FCS supplemented with kinase inhibitor at the indicated concentration. After a 90-minute incubation, the cells were washed in phosphate buffered saline (PBS) and lysed in Cell Extraction Buffer (Invitrogen) supplemented with protease and phosphatase inhibitors. The lysate was clarified by centrifugation and quantitated by BCA assay (Thermo Scientific). Protein was subjected to sodium dodecylsulfate polyacrylamide electrophoresis and transferred to nitrocellulose membranes. Immunoblotting was performed using anti-phospho-FLT3 (Cell Signaling) and anti-FLT3 S18 antibody (Santa Cruz Biotechnology).

[2] = system: Ba/F3 cells expressing FLT3-ITD mutant isoforms; settings: literature report (ref 18); cited from earlier work

## CNC(=O)c1cc(Oc2ccc(NC(=O)Nc3ccc(Cl)c(C(F)(F)F)c3)cc2)ccn1 [sorafenib]
[1]; FLT3-ITD/D835F vs FLT3-ITD
  resistance conferred by D835F mutation in vitro: cross-resistance
[1]; five AC220-resistant FLT3-ITD substitutions
  cross-resistance of AC220-resistant mutations in cell-based growth assay: substantial cross-resistance
FLT3-ITD mutant isoforms
  cross-resistance of AC220-resistant mutations in biochemical assay (phospho-FLT3): substantial cross-resistance
[2]
  sensitivity of FLT3-ITD/D835V in vitro, previously reported: retain sensitivity
